In patent publication US8563715B2, “Pyrimidine derivative having cell protecting effect and uses thereof” (Zenyaku Kogyo Kabushikikaisha, priority 2008, dated 2013):

Row | SMILES | melting point [°C]
1 | OC1(c2ccccc2)CCN(c2nc(N3CCOCC3)c(F)c(N3CCOCC3)n2)CC1 [Compound 116, 5-fluoro-2-(4-hydroxy-4-phenylpiperidin-1-yl)-4,6-dimorpholinopyrimidine] | 177 to 180
2 | Cc1cccc(N2CCN(c3nc(N4CCN(C)CC4)nc(N4CCOCC4)c3F)CC2)c1C [Compound 183, 5-fluoro-2-(4-methylpiperazin-1-yl)-4-morpholino-6-[4-(2,3-xylyl)piperazin-1-yl]pyrimidine] | 56 to 57
3 | Fc1c(N2CCOCC2)nc(N2CCNC(c3ccccc3)C2)nc1N1CCOCC1 (stereo not drawn) [Compound 93, 5-fluoro-4,6-dimorpholino-2-(3-phenylpiperazin-1-yl)pyrimidine] | 170 to 175
4 | Cc1ccccc1N1CCN(c2nc(N3CCOCC3)cc(N3CCOCC3)n2)CC1 [Compound 28, 2-[4-(2-methylphenyl)piperazin-1-yl]-4,6-dimorpholino-pyrimidine] | 149
5 | C1=C(c2ccccc2)CCN(c2cc(N3CCOCC3)nc(N3CCOCC3)n2)C1 [Compound 41, 2,4-dimorpholino-6-[4-phenyl (1,2,5,6-tetrahydropyridin-1-yl)]pyrimidine] | 165 to 168
6 | Fc1c(N2CCOCC2)nc(N2CC=C(c3ccccc3)CC2)nc1N1CCOCC1 [Compound 120, 5-fluoro-4,6-dimorpholino-2-[4-phenyl-1,2,5,6-tetrahydropyridin-1-yl]pyrimidine] | 132 to 135
7 | Cc1c(N2CCOCC2)nc(N2CCOCC2)nc1N1CCN(c2ccccc2)CC1 [Compound 45, 5-methyl-2,4-dimorpholino-6-(4-phenylpiperazin-1-yl)pyrimidine] | 149 to 152
8 | CCCCN(CCCC)c1cc(N2CCOCC2)nc(N2CCN(c3ccccc3)CC2)n1 [Compound 55, 6-dibutylamino-4-morpholino-2-(4-phenylpiperazin-1-yl)pyrimidine] | 84 to 85
9 | OC1(c2ccccc2)CCN(c2nc(N3CCOCC3)cc(N3CCOCC3)n2)CC1 [Compound 36, 2-(4-hydroxy-4-phenylpiperidin-1-yl)-4,6-dimorpholinopyrimidine] | 157 to 159
10 | c1cnc(N2CCN(c3nc(N4CCOCC4)cc(N4CCOCC4)n3)CC2)nc1 [Compound 14, 4,6-dimorpholino-2-[4-(pyrimidin-2-yl)piperazin-1-yl]pyrimidine] | 212 to 215
11 | Fc1ccccc1N1CCN(c2nc(N3CCOCC3)c(F)c(N3CCOCC3)n2)CC1 [Compound 106, 5-fluoro-2-[4-(2-fluorophenyl)piperazin-1-yl]-4,6-dimorpholinopyrimidine] | 144
12 | Nc1c(N2CCOCC2)nc(/C=C/c2cccs2)nc1N1CCOCC1 [Compound 132, 5-amino-4,6-dimorpholino-2-[2-(2-thienyl)vinyl]pyrimidine] | 221 to 223
13 | Clc1ccc(N2CCN(c3nc(N4CCOCC4)cc(N4CCOCC4)n3)CC2)cc1 [Compound 33, 2-[4-(4-chlorophenyl)piperazin-1-yl]-4,6-dimorpholinopyrimidine] | 213
14 | Fc1ccccc1N1CCN(c2nc(N3CCOCC3)cc(N3CCOCC3)n2)CC1 [Compound 31, 2-[4-(2-fluorophenyl)piperazin-1-yl]-4,6-dimorpholinopyrimidine] | 148
15 | COc1c(N2CCOCC2)nc(N2CCOCC2)nc1N1CCN(c2ccccc2)CC1 [Compound 50, 5-methoxy-2,4-dimorpholino-6-(4-phenylpiperazin-1-yl)pyrimidine] | 118 to 120
16 | CC(=O)c1ccc(N2CCN(c3cc(N4CCOCC4)nc(N4CCOCC4)n3)CC2)cc1 [Compound 25, 4-[4-(4-acetylphenyl)piperazin-1-yl]-2,6-dimorpholinopyrimidine] | 198 to 201
17 | COc1ccccc1N1CCN(c2nc(N3CCOCC3)cc(N3CCOCC3)n2)CC1 [Compound 32, 2-[4-(2-methoxyphenyl)piperazin-1-yl]-4,6-dimorpholinopyrimidine] | 214
18 | Fc1c(N2CCOCC2)nc(N2CCOCC2)nc1N1CCN(C2CCCCC2)CC1 [Compound 124, 4-(4-cyclohexylpiperazin-1-yl)-5-fluoro-2,6-dimorpholinopyrimidine] | 125 to 128
19 | Clc1ccccc1N1CCN(c2nc(N3CCOCC3)cc(N3CCOCC3)n2)CC1 [Compound 26, 2-[4-(2-chlorophenyl)piperazin-1-yl]-4,6-dimorpholinopyrimidine] | 156
20 | CC(=O)C1(c2ccccc2)CCN(c2cc(N3CCOCC3)nc(N3CCOCC3)n2)CC1 [Compound 39, 4-(4-acetyl-4-phenylpiperidin-1-yl)-2,6-dimorpholinopyrimidine] | 146 to 147
21 | CCOc1ccccc1N1CCN(c2nc(N3CCOCC3)cc(N3CCOCC3)n2)CC1 [Compound 27, 2-[4-(2-ethoxyphenyl)piperazin-1-yl]-4,6-dimorpholinopyrimidine] | 184

Row | SMILES | melting point [°C]
22 | Cc1ccccc1N1CCN(c2cc(N3CCOCC3)nc(N3CCN(c4ccccc4F)CC3)n2)CC1 [Compound 60, 2-[4-(2-fluorophenyl)piperazin-1-yl]-4-[4-(2-methylphenyl)piperazin-1-yl]-6-morpholinopyrimidine] | 98 to 99
23 | CC(=O)C1(c2ccccc2)CCN(c2nc(N3CCOCC3)cc(N3CCOCC3)n2)CC1 [Compound 38, 2-(4-acetyl-4-phenylpiperidin-1-yl)-4,6-dimorpholinopyrimidine] | 115 to 118
24 | Cc1cccc(N2CCN(c3nc(N4CCOCC4)cc(N4CCOCC4)n3)CC2)c1C [Compound 29, 4,6-dimorpholino-2-[4-(2,3-xylyl)piperazin-1-yl]pyrimidine] | 141
25 | c1ccc(Cc2c(N3CCOCC3)nc(N3CCOCC3)nc2N2CCN(c3ccccc3)CC2)cc1 [Compound 49, 5-benzyl-2,4-dimorpholino-6-(4-phenylpiperazin-1-yl)pyrimidine] | 162 to 165
26 | c1ccc(-c2c(N3CCOCC3)nc(N3CCOCC3)nc2N2CCN(c3ccccc3)CC2)cc1 [Compound 47, 2,4-dimorpholino-5-phenyl-6-(4-phenylpiperazin-1-yl)pyrimidine] | 203 to 206
27 | Cc1cccc(N2CCN(c3nc(N4CCN(Cc5ccc(N)cc5)CC4)nc(N4CCOCC4)c3F)CC2)c1C [Compound 194, 2-[4-(4-aminobenzyl)piperazin-1-yl]-5-fluoro-4-morpholino-6-[4-(2,3-xylyl)piperazin-1-yl]pyrimidine] | 77 to 78
28 | CC(C)(C)OC(=O)N1CCN(c2nc(N3CCN(c4ccccc4F)CC3)nc(N3CCOCC3)c2F)CC1 [Compound 181, 4-(4-tert-butoxycarbonylpiperazin-1-yl)-5-fluoro-2-[4-(2-fluorophenyl)piperazin-1-yl]-6-morpholinopyrimidine] | 137 to 138
29 | CC(=O)c1ccc(N2CCN(c3nc(N4CCOCC4)cc(N4CCOCC4)n3)CC2)cc1 [Compound 24, 2-[4-(4-acetylphenyl)piperazin-1-yl]-4,6-dimorpholinopyrimidine] | 162 to 166
30 | c1c(N2CCOCC2)nc(N2CCN(C3CCCCC3)CC2)nc1N1CCOCC1 [Compound 42, 2-[4-(4-cyclohexyl)piperazin-1-yl]-4,6-dimorpholinopyrimidine] | 171 to 174
31 | Fc1ccccc1N1CCN(c2nc(N3CCNCC3)c(F)c(N3CCOCC3)n2)CC1 [Compound 182, 5-fluoro-2-[4-(2-fluorophenyl)piperazin-1-yl]-4-morpholino-6-(1-piperazinyl)pyrimidine] | 51 to 52
32 | Fc1ccccc1N1CCN(c2cc(N3CCOCC3)nc(N3CCN(c4ccccc4F)CC3)n2)CC1 [Compound 59, 2,4-bis[4-(2-fluorophenyl)piperazin-1-yl]-6-morpholinopyrimidine] | 98 to 99
33 | CC(=O)c1ccc(N2CCN(c3nc(N4CCOCC4)c(F)c(N4CCOCC4)n3)CC2)cc1 [Compound 100, 2-[4-(4-acetylphenyl)piperazin-1-yl]-5-fluoro-4,6-dimorpholinopyrimidine] | 195 to 198
34 | Nc1c(N2CCOCC2)nc(/C=C/c2ccc(F)cc2)nc1N1CCOCC1 [Compound 135, 5-amino-2-[2-(4-fluorophenyl)vinyl]-4,6-dimorpholinopyrimidine] | 193 to 195
35 | Cc1ccccc1N1CCN(c2nc(N3CCN(c4ccccc4F)CC3)nc(N3CCOCC3)c2F)CC1 [Compound 127, 5-fluoro-2-[4-(2-fluorophenyl)piperazin-1-yl]-4-[4-(2-methylphenyl)piperazin-1-yl]-6-morpholinopyrimidine] | 71 to 72
36 | Cc1ccccc1N1CCN(c2cc(N3CCOCC3)nc(N3CCN(c4ccccc4C)CC3)n2)CC1 [Compound 62, 2,4-bis[4-(2-methylphenyl)piperazin-1-yl]-6-morpholinopyrimidine] | 98 to 99
37 | OC1(c2ccccc2)CCN(c2cc(N3CCOCC3)nc(N3CCOCC3)n2)CC1 [Compound 37, 4-(4-hydroxy-4-phenylpiperidin-1-yl)-2,6-dimorpholinopyrimidine] | 189 to 192
38 | CN(C)c1nc(N2CCOCC2)c(F)c(N2CCN(c3ccc(Cl)cc3)CC2)n1 [Compound 113, 4-[4-(4-chlorophenyl)piperazin-1-yl]-2-dimethylamino-5-fluoro-6-morpholinopyrimidine] | 152
39 | Clc1c(N2CCOCC2)nc(N2CCN(c3ccccc3)CC2)nc1N1CCOCC1 [Compound 130, 5-chloro-4,6-dimorpholino-2-(4-phenylpiperazin-1-yl)pyrimidine] | 131 to 133
40 | c1ccc(C2CN(c3cc(N4CCOCC4)nc(N4CCOCC4)n3)CCN2)cc1 (stereo not drawn) [Compound 17, 2,4-dimorpholino-6-(3-phenylpiperazin-1-yl)pyrimidine] | 181 to 185
41 | Fc1c(N2CCOCC2)nc(N2CCOCC2)nc1N1CCN(Cc2ccccc2)CC1 [Compound 90, 4-(4-benzylpiperazin-1-yl)-5-fluoro-2,6-dimorpholinopyrimidine] | 108 to 111
42 | Cc1ccc(N2CCN(c3nc(N4CCOCC4)cc(N4CCOCC4)n3)CC2)cc1 [Compound 22, 2-[4-(4-methylphenyl)piperazin-1-yl]-4,6-dimorpholinopyrimidine] | 191 to 194
